Experimental findings from patent US20110054039A1, “USE OF ALKYL SULFATES OR SULFONATES AGAINST PROPIONIBACTERIUM ACNES” (priority 2008, published 2011) are described below.

Bounds are passed on as bounds.

Holding throughout (format): cell-based
In assay [1] the test system is Propionibacterium acnes NCTC 737. Kind of assay: Minimum Biocidal (Bactericidal) Concentration (MBC) assay. To be noted: P. acnes NCTC 737; for MBC: Cutibacterium acnes, NCTC737, sub-culture on antibiotic-free agar after MIC assay, read-out: MBC. As for the experimental part:
(§1) The test micro-organism represented the cutaneous propionibacteria. […] The propionibacteria are clinically significant due to their involvement in acne. This is a very common, complex and multi-factorial skin disease in which P. acnes and other Propionibacterium spp. […] They are also opportunistic pathogens in compromised hosts.
(§2) The propionibacteria were cultured and maintained on Wilkins-Chalgren Anaerobe Medium (agar and broth) at pH 6.0; all cultures were incubated anaerobically at 37° C. for 72 hours.
This assay, normally carried out after an MIC assay, determines the minimum concentration of a compound that is lethal to the micro-organism being tested.
These samples were then individually sub-cultured on antibiotic-free agar medium, under the incubation conditions described above. Following incubation they were examined visually for microbial growth.
(§3) MIC, MBC and DDA assays, as described above, were carried out using as the test compound sodium n-tetradecyl sulphate (STS, ex Sigma Aldrich, UK), dissolved in distilled water. All the experiments were conducted in triplicate. For the DDA experiments, 200 μg of the test compound was loaded onto each disc.
(§4) The MIC/MBC experiments were conducted in triplicate, with the exception of those for SDS and ADS which were conducted in duplicate. The DDAs were performed either in triplicate, in which case standard deviations are quoted in parentheses, or as a single replicate. For the DDA experiments, 200 μg of the test compound was loaded onto each disc.

The test system is the same in assay [2]. The experiment in a line: Minimum Inhibitory Concentration (MIC) assay, broth microdilution. To be noted: Cutibacterium acnes, NCTC737; P. acnes NCTC 737; Wilkins-Chalgren broth pH 6.0, anaerobic, 37° C., 72 hours; read-out: MIC. How it is done:
as §1, §2
This is a standard international method for quantitatively assessing the antimicrobial activity of a compound in a liquid medium. […] The culture media were as described above.
The wells were inoculated with a liquid suspension of freshly grown micro-organism and incubated under the conditions described above. After incubation, the microtitre plate was examined visually (with the aid of a light box) for cloudiness in each well, which would indicate microbial growth. The MIC value was recorded as the lowest concentration of test compound required to inhibit microbial growth, ie the lowest concentration for which the liquid in the well remained clear.
The assays included both negative (culture medium with no micro-organisms) and positive (culture medium plus diluting solvent plus micro-organism) controls.
as §3, §4
A general note: Broth dilution looks for growth in wells or tubes with falling amounts of substance.

For assay [3] the test system is unchanged. The experiment in a line: Supplemented Disc Diffusion Assay (agar with salt or lipid). To be noted: Cutibacterium acnes, NCTC737, 72 h, P. acnes NCTC 737, 200 μg per disc. As for the experimental part:
as §1, §2
(§5) A sterile paper disc was impregnated with a sample of the test compound in a suitable solvent and 30 minutes allowed for the solvents to evaporate (where possible). The disc was then placed on an agar plate onto which the test micro-organism had been inoculated. The plate was then incubated under the conditions described above, following which it was examined visually for signs of microbial growth. […] The diameter of this zone of ‘inhibition’ was measured using a ProtoCOL™ automated zone sizer (Synbiosis, Cambridge, UK).
Performance under these conditions can provide a more reliable indication of activity on topical application.
as §3, §4
In general terms: Agar diffusion results depend on both activity and mobility in agar.

The test system is the same in assay [4]. The experiment in a line: Disc Diffusion Assay (DDA). Particulars: Cutibacterium acnes, NCTC737; P. acnes NCTC 737; 200 μg of test compound per disc; read-out: DDA (diameter of zone of inhibition). As for the experimental part:
as §1, §2
This is an internationally recognised standard method for qualitatively assessing the antimicrobial activity of a compound.
as §5, §3, §4

Where [5] appears, read: agar supplemented with sodium chloride (100 mM), read-out: DDA + salt.
[6] abbreviates: agar supplemented with triolein at 1% v/v, read-out: DDA + lipid.

In the case of `CCCCCCCCOS(=O)(=O)[O-].[Na+]` [Sodium octyl sulphate, sodium octyl sulphate], the minimum bactericidal concentration (MBC) in assay [1] was greater than 250 µg/mL. Besides, the MIC in assay [2] is greater than 250 µg/mL. For the same molecule, the zone of inhibition at 200 µg/disc in assay [3] (setting [5]), in assay [3] (setting [6]) and in assay [4] was 0 mm throughout.
For the molecule `CCCCCCCCCCCCCOS(=O)(=O)[O-].[Na+]` [Sodium tridecyl sulphate, sodium tridecyl sulphate], the MBC in assay [1] was 7.8 µg/mL. Also, in assay [1], the MIC/MBC ratio is listed as 1. The minimal inhibitory concentration (MIC) in assay [2] was 7.8 µg/mL. Moreover, the zone of inhibition at 200 µg/disc in assay [3] (setting [5]) turned out to be 33.3 mm; in assay [3] (setting [6]) it was 31.8 mm; in assay [4] it was 32.2 mm.
Take `CCCCCCCCCS(=O)(=O)[O-].[Na+]` [Sodium 1-nonanesulphonate, sodium 1-nonanesulphonate]: the minimal bactericidal concentration (MBC) in assay [1] is greater than 250 µg/mL. The minimal inhibitory concentration (MIC) in assay [2] was greater than 250 µg/mL. Besides, the zone of inhibition at 200 µg/disc in assay [3] (setting [5]), in assay [3] (setting [6]) and in assay [4] was 0 mm throughout.

As a reminder, the MBC is the smallest concentration meeting the test's criterion for killing. The term MIC denotes the smallest concentration in the dilution series that meets the test's criterion for growth inhibition.
